Laboratory results taken from patent US11117892B2, “Pyrrolo-pyridine derivative compound, method for preparing same, and pharmaceutical composition containing same as active ingredient for prevention or treatment of protein kinase-related diseases” (DAEGU-GYEONGBUK MEDICAL INNOVATION FOUNDATION, priority 2017, dated 2021).

How the values were obtained:
Assay in all cases: scanMAX Kinase assay panel
Format in all cases: binding
Conditions in all cases: read-out: % control
MTOR = MTOR (Homo sapiens (Human), UniProt P42345)
Outline: (§1)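 % control read-out: DMSO vehicle = 100%, positive control = 0%, test compound scaled between these two. Selectivity profiling was done on the scanMAX kinase panel.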

EGFR(E746-A750del) = EGFR(E746-A750del) (Homo sapiens (Human), UniProt P00533, DEL746-750)
Outline: as §1

MAST1 = MAST1 (Homo sapiens (Human), UniProt Q9Y2H9)
Outline: as §1

RIOK1 = RIOK1 (Homo sapiens (Human), UniProt Q9BRS2)
Outline: as §1

NEK11 = NEK11 (Homo sapiens (Human), UniProt Q8NG66)
Outline: as §1

MLK1 = MLK1 (Homo sapiens (Human), UniProt P80192)
Outline: as §1

STK35 = STK35 (Homo sapiens (Human), UniProt Q8TDR2)
Outline: as §1

[1] = biological target: RSK4(Kin.Dom.2-C-terminal) (Homo sapiens (Human), UniProt Q9UK32)
Outline: as §1

RIPK5 = RIPK5 (Homo sapiens (Human), UniProt Q6XUX3)
Outline: as §1

FLT3(K663Q) = FLT3(K663Q) (Homo sapiens (Human), UniProt P36888, K663Q)
Outline: as §1

FLT3-autoinhibited = FLT3-autoinhibited (Homo sapiens (Human), UniProt P36888)
Outline: as §1

TRKC = TRKC (Homo sapiens (Human), UniProt Q16288)
Outline: as §1

MKK7 = MKK7 (Homo sapiens (Human), UniProt O14733)
Outline: as §1

RET(M918T) = RET(M918T) (Homo sapiens (Human), UniProt P07949, M918T)
Outline: as §1

MAP3K2 = MAP3K2 (Homo sapiens (Human), UniProt Q9Y2U5)
Outline: as §1

NEK5 = NEK5 (Homo sapiens (Human), UniProt Q6P3R8)
Outline: as §1

MLK3 = MLK3 (Homo sapiens (Human), UniProt Q16584)
Outline: as §1

EPHB1 = EPHB1 (Homo sapiens (Human), UniProt P54762)
Outline: as §1

GAK = GAK (Homo sapiens (Human), UniProt O14976)
Outline: as §1

TXK = TXK (Homo sapiens (Human), UniProt P42681)
Outline: as §1

CDK4-cyclinD1 = CDK4-cyclinD1 (Homo sapiens (Human), UniProt P11802)
Outline: as §1

CDKL3 = CDKL3 (Homo sapiens (Human), UniProt Q8IVW4)
Outline: as §1

SRC = SRC (Homo sapiens (Human), UniProt P12931)
Outline: as §1

ERK2 = ERK2 (Homo sapiens (Human), UniProt P28482)
Outline: as §1

PIM1 = PIM1 (Homo sapiens (Human), UniProt P11309)
Outline: as §1

KIT-autoinhibited = KIT-autoinhibited (Homo sapiens (Human), UniProt P10721)
Outline: as §1

DMPK2 = DMPK2 (Homo sapiens (Human), UniProt Q6DT37)
Outline: as §1

EGFR = EGFR (Homo sapiens (Human), UniProt P00533)
Outline: as §1

CDKL2 = CDKL2 (Homo sapiens (Human), UniProt Q92772)
Outline: as §1

MERTK = MERTK (Homo sapiens (Human), UniProt Q12866)
Outline: as §1

ZAK = ZAK (Homo sapiens (Human), UniProt Q9NYL2)
Outline: as §1

ERK1 = ERK1 (Homo sapiens (Human), UniProt P27361)
Outline: as §1

FYN = FYN (Homo sapiens (Human), UniProt P06241)
Outline: as §1

WEE2 = WEE2 (Homo sapiens (Human), UniProt P0C1S8)
Outline: as §1

PLK1 = PLK1 (Homo sapiens (Human), UniProt P53350)
Outline: as §1

IKK-epsilon = IKK-epsilon (Homo sapiens (Human), UniProt Q14164)
Outline: as §1

DAPK3 = DAPK3 (Homo sapiens (Human), UniProt O43293)
Outline: as §1

PRKR = PRKR (Homo sapiens (Human), UniProt P19525)
Outline: as §1

PIP5K2C = PIP5K2C (Homo sapiens (Human), UniProt Q8TBX8)
Outline: as §1

Sequence of ERK2 (P28482 whole entry): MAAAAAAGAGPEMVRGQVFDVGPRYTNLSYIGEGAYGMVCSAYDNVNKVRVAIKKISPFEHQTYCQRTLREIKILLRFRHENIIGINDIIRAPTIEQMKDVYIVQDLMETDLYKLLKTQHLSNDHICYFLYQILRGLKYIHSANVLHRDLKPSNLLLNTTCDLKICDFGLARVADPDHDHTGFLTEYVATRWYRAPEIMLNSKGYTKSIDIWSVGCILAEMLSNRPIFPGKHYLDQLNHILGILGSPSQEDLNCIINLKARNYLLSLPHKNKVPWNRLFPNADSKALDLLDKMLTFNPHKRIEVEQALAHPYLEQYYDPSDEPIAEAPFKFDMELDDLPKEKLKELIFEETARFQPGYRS
Sequence of CDKL2 (Q92772 whole entry): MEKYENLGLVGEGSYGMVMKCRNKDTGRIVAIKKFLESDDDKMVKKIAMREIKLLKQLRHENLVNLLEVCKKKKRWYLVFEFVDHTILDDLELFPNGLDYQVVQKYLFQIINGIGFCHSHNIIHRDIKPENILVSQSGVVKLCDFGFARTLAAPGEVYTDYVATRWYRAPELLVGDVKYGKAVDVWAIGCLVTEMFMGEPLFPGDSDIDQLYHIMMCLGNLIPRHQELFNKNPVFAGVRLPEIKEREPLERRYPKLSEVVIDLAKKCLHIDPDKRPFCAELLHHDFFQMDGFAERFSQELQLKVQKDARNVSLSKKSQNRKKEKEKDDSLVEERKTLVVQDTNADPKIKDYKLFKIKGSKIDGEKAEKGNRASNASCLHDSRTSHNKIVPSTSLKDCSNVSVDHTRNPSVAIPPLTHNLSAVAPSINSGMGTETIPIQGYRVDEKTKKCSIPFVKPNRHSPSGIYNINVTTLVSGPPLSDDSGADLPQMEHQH
Sequence of DMPK2 (Q6DT37 whole entry): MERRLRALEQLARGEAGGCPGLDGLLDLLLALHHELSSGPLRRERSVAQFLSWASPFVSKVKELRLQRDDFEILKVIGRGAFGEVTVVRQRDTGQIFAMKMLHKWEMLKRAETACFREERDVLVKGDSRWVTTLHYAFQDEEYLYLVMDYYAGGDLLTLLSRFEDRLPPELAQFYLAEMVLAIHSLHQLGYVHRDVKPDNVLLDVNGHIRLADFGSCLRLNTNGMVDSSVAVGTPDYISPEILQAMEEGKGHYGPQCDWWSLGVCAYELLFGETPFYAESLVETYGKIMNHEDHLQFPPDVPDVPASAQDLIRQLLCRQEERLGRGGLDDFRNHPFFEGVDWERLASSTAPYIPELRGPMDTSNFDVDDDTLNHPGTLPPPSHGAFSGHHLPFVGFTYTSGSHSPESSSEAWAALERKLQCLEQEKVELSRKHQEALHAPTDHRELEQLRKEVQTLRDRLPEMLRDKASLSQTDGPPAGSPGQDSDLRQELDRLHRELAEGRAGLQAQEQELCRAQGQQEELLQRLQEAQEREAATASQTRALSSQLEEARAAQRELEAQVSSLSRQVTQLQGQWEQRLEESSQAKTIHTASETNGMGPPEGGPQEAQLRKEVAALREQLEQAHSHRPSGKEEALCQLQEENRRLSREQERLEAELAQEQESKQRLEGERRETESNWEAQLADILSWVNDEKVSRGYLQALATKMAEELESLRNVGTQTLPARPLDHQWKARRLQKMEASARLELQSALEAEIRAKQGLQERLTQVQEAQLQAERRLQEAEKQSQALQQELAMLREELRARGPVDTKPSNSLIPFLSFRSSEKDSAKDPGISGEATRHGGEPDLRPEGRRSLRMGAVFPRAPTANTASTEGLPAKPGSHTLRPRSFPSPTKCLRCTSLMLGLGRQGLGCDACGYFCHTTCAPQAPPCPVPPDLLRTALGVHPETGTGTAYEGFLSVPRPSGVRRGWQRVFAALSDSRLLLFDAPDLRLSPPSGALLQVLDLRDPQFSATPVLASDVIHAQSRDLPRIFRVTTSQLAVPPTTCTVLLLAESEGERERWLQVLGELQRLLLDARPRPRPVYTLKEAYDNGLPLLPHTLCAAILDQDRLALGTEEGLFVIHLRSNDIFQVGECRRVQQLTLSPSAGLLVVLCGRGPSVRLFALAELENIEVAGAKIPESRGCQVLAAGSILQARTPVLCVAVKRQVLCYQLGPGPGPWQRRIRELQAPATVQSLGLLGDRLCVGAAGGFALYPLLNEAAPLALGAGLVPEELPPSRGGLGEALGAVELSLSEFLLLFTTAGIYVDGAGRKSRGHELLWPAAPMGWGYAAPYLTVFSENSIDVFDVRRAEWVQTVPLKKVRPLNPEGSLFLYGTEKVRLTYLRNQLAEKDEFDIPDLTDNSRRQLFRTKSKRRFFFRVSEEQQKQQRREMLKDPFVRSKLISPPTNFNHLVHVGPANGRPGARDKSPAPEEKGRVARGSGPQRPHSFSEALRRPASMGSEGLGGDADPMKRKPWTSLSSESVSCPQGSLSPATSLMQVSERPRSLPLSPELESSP
Sequence of IKK-epsilon (Q14164 whole entry): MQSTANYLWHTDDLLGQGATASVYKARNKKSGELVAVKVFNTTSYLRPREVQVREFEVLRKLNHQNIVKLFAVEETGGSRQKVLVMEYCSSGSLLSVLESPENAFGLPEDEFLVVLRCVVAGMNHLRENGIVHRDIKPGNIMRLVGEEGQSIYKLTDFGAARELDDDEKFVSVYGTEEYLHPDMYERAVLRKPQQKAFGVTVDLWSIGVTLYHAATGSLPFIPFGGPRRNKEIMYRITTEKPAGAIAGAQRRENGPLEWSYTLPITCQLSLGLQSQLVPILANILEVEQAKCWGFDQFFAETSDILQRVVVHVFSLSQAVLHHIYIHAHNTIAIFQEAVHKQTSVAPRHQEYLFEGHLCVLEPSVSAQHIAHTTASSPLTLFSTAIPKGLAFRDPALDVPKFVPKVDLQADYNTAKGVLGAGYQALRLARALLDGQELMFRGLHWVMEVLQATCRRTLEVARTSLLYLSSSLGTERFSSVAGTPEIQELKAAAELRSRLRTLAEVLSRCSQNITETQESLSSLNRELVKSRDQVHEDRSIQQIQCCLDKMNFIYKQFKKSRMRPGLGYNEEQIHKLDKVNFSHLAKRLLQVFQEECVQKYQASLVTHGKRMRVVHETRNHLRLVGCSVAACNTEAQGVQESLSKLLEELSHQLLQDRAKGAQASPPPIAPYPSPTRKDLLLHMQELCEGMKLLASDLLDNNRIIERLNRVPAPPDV
Sequence of MERTK (Q12866 21-999): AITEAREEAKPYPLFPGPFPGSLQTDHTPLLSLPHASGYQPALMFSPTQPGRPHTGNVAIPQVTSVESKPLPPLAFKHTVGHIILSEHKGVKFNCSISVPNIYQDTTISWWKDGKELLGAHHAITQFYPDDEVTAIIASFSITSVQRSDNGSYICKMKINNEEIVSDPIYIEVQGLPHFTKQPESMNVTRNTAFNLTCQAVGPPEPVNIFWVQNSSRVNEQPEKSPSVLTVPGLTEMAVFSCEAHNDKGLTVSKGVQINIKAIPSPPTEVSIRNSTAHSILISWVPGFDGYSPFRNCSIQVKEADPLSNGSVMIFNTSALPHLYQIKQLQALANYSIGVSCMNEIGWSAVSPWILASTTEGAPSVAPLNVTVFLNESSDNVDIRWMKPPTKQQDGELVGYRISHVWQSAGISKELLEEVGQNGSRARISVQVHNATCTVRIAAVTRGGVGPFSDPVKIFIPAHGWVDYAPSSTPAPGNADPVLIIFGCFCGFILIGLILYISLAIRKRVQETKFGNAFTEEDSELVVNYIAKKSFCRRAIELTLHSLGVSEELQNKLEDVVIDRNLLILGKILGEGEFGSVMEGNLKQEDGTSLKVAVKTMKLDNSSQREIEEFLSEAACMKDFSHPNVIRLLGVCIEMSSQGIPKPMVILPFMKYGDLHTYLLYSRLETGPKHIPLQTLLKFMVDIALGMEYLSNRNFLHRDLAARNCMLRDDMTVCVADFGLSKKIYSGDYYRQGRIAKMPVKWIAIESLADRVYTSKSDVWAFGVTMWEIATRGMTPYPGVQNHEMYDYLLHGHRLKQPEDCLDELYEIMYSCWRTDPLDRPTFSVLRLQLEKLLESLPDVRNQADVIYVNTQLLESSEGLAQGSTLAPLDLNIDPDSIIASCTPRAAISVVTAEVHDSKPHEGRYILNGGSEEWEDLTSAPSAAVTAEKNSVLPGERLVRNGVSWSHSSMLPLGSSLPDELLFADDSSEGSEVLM
Sequence of WEE2 (P0C1S8 whole entry): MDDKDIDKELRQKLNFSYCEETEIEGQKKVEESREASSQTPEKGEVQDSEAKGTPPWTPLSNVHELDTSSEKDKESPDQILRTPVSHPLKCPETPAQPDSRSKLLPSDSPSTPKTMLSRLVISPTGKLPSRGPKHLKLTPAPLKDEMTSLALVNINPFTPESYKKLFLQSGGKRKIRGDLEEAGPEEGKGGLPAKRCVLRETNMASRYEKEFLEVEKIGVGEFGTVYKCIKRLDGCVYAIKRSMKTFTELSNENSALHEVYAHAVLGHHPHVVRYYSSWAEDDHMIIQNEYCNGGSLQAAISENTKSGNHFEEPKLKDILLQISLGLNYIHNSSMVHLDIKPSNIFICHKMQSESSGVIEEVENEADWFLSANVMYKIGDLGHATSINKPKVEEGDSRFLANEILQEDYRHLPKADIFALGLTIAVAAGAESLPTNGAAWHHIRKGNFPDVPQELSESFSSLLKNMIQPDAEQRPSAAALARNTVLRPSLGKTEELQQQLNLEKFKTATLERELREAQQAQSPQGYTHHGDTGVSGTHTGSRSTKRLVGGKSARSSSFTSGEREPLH
Sequence of ERK1 (P27361 whole entry): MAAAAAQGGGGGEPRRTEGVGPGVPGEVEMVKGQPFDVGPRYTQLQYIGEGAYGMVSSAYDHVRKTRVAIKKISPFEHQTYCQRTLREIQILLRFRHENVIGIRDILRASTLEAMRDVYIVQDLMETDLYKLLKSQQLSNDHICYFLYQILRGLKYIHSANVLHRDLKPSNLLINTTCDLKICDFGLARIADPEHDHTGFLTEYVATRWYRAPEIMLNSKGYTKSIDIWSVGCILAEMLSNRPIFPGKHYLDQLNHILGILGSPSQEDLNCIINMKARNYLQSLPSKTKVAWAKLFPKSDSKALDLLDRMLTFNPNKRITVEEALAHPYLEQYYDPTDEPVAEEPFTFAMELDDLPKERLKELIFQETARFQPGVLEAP

For `CCNc1cc(Nc2ccc(C(=O)N3CCC(N4CCOCC4)CC3)cc2OC)nc2[nH]cc(C(F)(F)F)c12` [Example 57, (4-((4-(ethylamino)-3-(trifluoromethyl)-1H-pyrrolo[2,3-b]pyridin-6-yl)amino)-3-methoxyphenyl) (4-morpholinopiperidin-1-yl)methanone], the remaining binding at 1 µM (MTOR) was 88%, the remaining binding at 1 µM (EGFR(E746-A750del)) was 98% and the remaining binding at 1 µM (MAST1) was 66%. For the same compound, the remaining binding at 1 µM (RIOK1) was 94%, the remaining binding at 1 µM (NEK11) was 100% and the remaining binding at 1 µM (MLK1) was 100%. The remaining binding at 1 µM (STK35) was 98%, the remaining binding at 1 µM [1] was 80% and the remaining binding at 1 µM (RIPK5) was 79%. For the same compound, the remaining binding at 1 µM (FLT3(K663Q)) was 94%, the remaining binding at 1 µM (FLT3-autoinhibited) was 92% and the remaining binding at 1 µM (TRKC) was 100%. For the same compound, the remaining binding at 1 µM (MKK7) was 93%, the remaining binding at 1 µM (RET(M918T)) was 100% and the remaining binding at 1 µM (MAP3K2) was 100%. For the same compound, the remaining binding at 1 µM (NEK5) was 91%, the remaining binding at 1 µM (MLK3) was 80% and the remaining binding at 1 µM (EPHB1) was 94%. It also gave a remaining binding at 1 µM (GAK) of 41%, a remaining binding at 1 µM (TXK) of 85% and a remaining binding at 1 µM (CDK4-cyclinD1) of 95%. For the same compound, the remaining binding at 1 µM (CDKL3) was 61%, the remaining binding at 1 µM (SRC) was 100% and the remaining binding at 1 µM (ERK2) was 74%. For the same compound, the remaining binding at 1 µM (PIM1) was 94%, the remaining binding at 1 µM (KIT-autoinhibited) was 100% and the remaining binding at 1 µM (DMPK2) was 96%. The remaining binding at 1 µM (EGFR) was 59%, the remaining binding at 1 µM (CDKL2) was 90% and the remaining binding at 1 µM (MERTK) was 91%. For the same compound, the remaining binding at 1 µM (ZAK) was 87%, the remaining binding at 1 µM (ERK1) was 98% and the remaining binding at 1 µM (FYN) was 87%. The remaining binding at 1 µM (WEE2) was 96%, the remaining binding at 1 µM (PLK1) was 100% and the remaining binding at 1 µM (IKK-epsilon) was 96%. The remaining binding at 1 µM (DAPK3) was 86%, the remaining binding at 1 µM (PRKR) was 93% and the remaining binding at 1 µM (PIP5K2C) was 71%.

`CCNc1cc(Nc2ccc(C(=O)N3CCC(N4CCOCC4)CC3)cc2OC)nc2[nH]cc(C#N)c12` [Example 18, 4-(ethylamino)-6-((2-methoxy-4-(4-morpholinopiperidine-1-carbonyl)phenyl)amino)-1H-pyrrolo[2,3-b]pyridine-3-carbonitrile] showed a remaining binding at 1 µM (MTOR) of 86%, a remaining binding at 1 µM (EGFR(E746-A750del)) of 83% and a remaining binding at 1 µM (MAST1) of 93%. It also gave a remaining binding at 1 µM (RIOK1) of 94%, a remaining binding at 1 µM (NEK11) of 100% and a remaining binding at 1 µM (MLK1) of 100%. It also gave a remaining binding at 1 µM (STK35) of 85%, a remaining binding at 1 µM [1] of 71% and a remaining binding at 1 µM (RIPK5) of 18%. For the same compound, the remaining binding at 1 µM (FLT3(K663Q)) was 84%, the remaining binding at 1 µM (FLT3-autoinhibited) was 82% and the remaining binding at 1 µM (TRKC) was 93%. The remaining binding at 1 µM (MKK7) was 89%, the remaining binding at 1 µM (RET(M918T)) was 99% and the remaining binding at 1 µM (MAP3K2) was 79%. It also gave a remaining binding at 1 µM (NEK5) of 92%, a remaining binding at 1 µM (MLK3) of 99% and a remaining binding at 1 µM (EPHB1) of 95%. The remaining binding at 1 µM (GAK) was 15%, the remaining binding at 1 µM (TXK) was 99% and the remaining binding at 1 µM (CDK4-cyclinD1) was 100%. It also gave a remaining binding at 1 µM (CDKL3) of 100%, a remaining binding at 1 µM (SRC) of 100% and a remaining binding at 1 µM (ERK2) of 94%. The remaining binding at 1 µM (PIM1) was 59%, the remaining binding at 1 µM (KIT-autoinhibited) was 66% and the remaining binding at 1 µM (DMPK2) was 85%. For the same compound, the remaining binding at 1 µM (EGFR) was 100%, the remaining binding at 1 µM (CDKL2) was 100% and the remaining binding at 1 µM (MERTK) was 100%. The remaining binding at 1 µM (ZAK) was 96%, the remaining binding at 1 µM (ERK1) was 100% and the remaining binding at 1 µM (FYN) was 78%. For the same compound, the remaining binding at 1 µM (WEE2) was 91%, the remaining binding at 1 µM (PLK1) was 41% and the remaining binding at 1 µM (IKK-epsilon) was 96%. The remaining binding at 1 µM (DAPK3) was 14%, the remaining binding at 1 µM (PRKR) was 95% and the remaining binding at 1 µM (PIP5K2C) was 16%.
